Laboratory results taken from patent US8519128B2, “Pyripyropene derivatives having an ACAT2-inhibiting activity” (The Kitasato Institute, priority 2007, dated 2013).
Read-outs that look alike come from different tables or passages of the source.

Biological target: T1, ACAT 2 (Mus musculus, UniProt O88908)
T1 construct: The source of ACAT 2 enzyme used was a membrane fraction derived from mouse liver microsome; from tissue; host or cells: mouse liver (microsome fraction)
T1 sequence (O88908 1-525): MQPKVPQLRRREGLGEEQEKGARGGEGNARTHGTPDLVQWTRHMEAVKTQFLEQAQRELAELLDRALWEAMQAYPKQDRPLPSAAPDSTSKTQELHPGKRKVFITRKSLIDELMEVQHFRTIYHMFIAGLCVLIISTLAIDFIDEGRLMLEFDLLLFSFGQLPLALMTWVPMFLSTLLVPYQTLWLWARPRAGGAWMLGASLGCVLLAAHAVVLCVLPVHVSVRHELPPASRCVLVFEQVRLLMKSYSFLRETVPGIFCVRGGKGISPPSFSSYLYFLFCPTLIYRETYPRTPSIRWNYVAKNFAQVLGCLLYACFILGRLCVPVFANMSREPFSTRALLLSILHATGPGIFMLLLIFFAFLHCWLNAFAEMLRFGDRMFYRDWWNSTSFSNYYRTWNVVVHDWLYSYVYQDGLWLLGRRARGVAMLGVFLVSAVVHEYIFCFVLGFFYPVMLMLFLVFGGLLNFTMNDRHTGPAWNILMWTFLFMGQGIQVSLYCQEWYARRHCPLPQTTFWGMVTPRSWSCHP
Assay: ACAT-inhibiting activity, mouse liver microsome membrane fraction, [14C]oleoyl-CoA
Type: biochemical
Details: for IC50: mouse liver microsome, 5 minutes at 37° C.; for Specific activity: (inhibitory activity of test compound)/(inhibitory activity of pyripyropene A): relative to pyripyropene A
Method: The source of ACAT 2 enzyme used was a membrane fraction derived from mouse liver microsome. Mouse liver was homogenized in buffer solution A (50 mM Tris-HCl (pH 7.8), 1 mM ethylenediamine tetraacetate, and 1 mM phenylmethanesulfonyl fluoride) using a homogenizer of the Potter type (Tokyo-RIKO). The homogenate was centrifuged at 12000×g, and the supernatant was ultracentrifuged at 100000×g. The sediment was taken as a microsome fraction, and this fraction was adjusted to have a protein concentration of 5 mg/ml using buffer solution A.
The chloroform layer was evaporated to dryness and was used to spot a thin layer chromatography plate (silica gel plate, Merck, 0.5 mm thickness). Elution for separation was carried out using a solvent of hexane/diethyl ether/acetic acid (70:30:1, v/v).

Row | Molecule | IC50 [nM] | Specific activity: (inhibitory activity of test compound)/(inhibitory activity of pyripyropene A) | IC50 (read-out: Inhibitory activity: Concentration required for 50% inhibition of ACAT 2) [nM]
1 | COCCOCO[C@H]1CC2C(C)(COC(C)=O)[C@@H](OC(C)=O)CC[C@]2(C)C2[C@@H](O)c3c(cc(-c4cccnc4)oc3=O)O[C@@]21C (stereo partly drawn) [PRD 055, 7-deacetyl-7-O-methoxyethoxymethylpyripyropene A] | 10 to 100 | +++ (50 > specific activity > 10) | 
2 | COc1cccc(C(=O)O[C@H]2CC3C(C)(COC(C)=O)[C@@H](OC(C)=O)CC[C@]3(C)C3[C@@H](O)c4c(cc(-c5cccnc5)oc4=O)O[C@@]32C)c1 (stereo partly drawn) [PRD 002, 7-m-methoxybenzoyl-7-deacetylpyripyropene A] | 10 to 100 | +++ (50 > specific activity > 10) | 
3 | COCCOCOCC(=O)O[C@H]1CC2C(C)(COC(C)=O)[C@@H](OC(C)=O)CC[C@]2(C)C2[C@@H](O)c3c(cc(-c4cccnc4)oc3=O)O[C@@]21C (stereo partly drawn) [PRD 108, 7-O-methoxyethoxymethoxyacetyl-7-deacetylpyripyropene A] | 100 to 1000 | + (5 > specific activity > 1) | 
4 | CC(=O)OCC1(C)C2C[C@H](OC(=O)c3ccc(=O)oc3)[C@@]3(C)Oc4cc(-c5cccnc5)oc(=O)c4[C@H](O)C3[C@@]2(C)CC[C@@H]1OC(C)=O (stereo partly drawn) [PRD 098, 7-O-2-pyrone-5-carboxyl-7-deacetylpyripyropene A] | 100 to 1000 | + (5 > specific activity > 1) | 
5 | CC12CO[Si](C(C)(C)C)(C(C)(C)C)O[C@H]1CC[C@@]1(C)C2C[C@H](OC(=O)c2ccc(C#N)cc2)[C@@]2(C)Oc3cc(-c4cccnc4)oc(=O)c3[C@H](OC(=O)c3ccc(C#N)cc3)C12 (stereo partly drawn) [PRD 060, 7,13-di-(O-p-cyanobenzoyl)-1,11-O-(di-tert-butylsilylene)-1,7,11-trideacetylpyripyropene A] | 100 to 1000 | + (5 > specific activity > 1) | 
6 | CSc1ccc(C(=O)O[C@H]2CC3C(C)(COC(C)=O)[C@@H](OC(C)=O)CC[C@]3(C)C3[C@@H](O)c4c(cc(-c5cccnc5)oc4=O)O[C@@]32C)cc1 (stereo partly drawn) [PRD 018, 7-p-methylthiobenzoyl-7-deacetylpyripyropene A] | 10 to 100 | + (5 > specific activity > 1) | 
7 | CC(=O)OCC1(C)C2C[C@H](OC(=O)c3ccc(N=[N+]=[N-])cc3)[C@@]3(C)Oc4cc(-c5cccnc5)oc(=O)c4[C@H](O)C3[C@@]2(C)CC[C@@H]1OC(C)=O (stereo partly drawn) [PRD 030, 7-O-p-azidebenzoyl-7-deacetylpyripyropene A] | 10 to 100 | ++ (10 > specific activity > 5) | 
8 | CC12COC(c3ccccc3)O[C@H]1CC[C@@]1(C)C2C[C@H](OC(=O)c2ccc(Br)cc2)[C@@]2(C)Oc3cc(-c4cccnc4)oc(=O)c3[C@H](O)C12 (stereo partly drawn) [PRD 053, 1,11-O-benzylidene-7-O-p-bromobenzoyl-1,7,11-trideacetylpyripyropene A] | 10 to 100 | + (5 > specific activity > 1) | 
9 | CC(=O)OCC1(C)C2C[C@H](OC(=O)CCc3ccccc3)[C@@]3(C)Oc4cc(-c5cccnc5)oc(=O)c4[C@H](O)C3[C@@]2(C)CC[C@@H]1OC(C)=O (stereo partly drawn) [PRD 100, 7-O-3-phenylpropionyl-7-deacetylpyripyropene A] | < 10 | +++ (50 > specific activity > 10) | 
10 | CC(=O)OCC1(C)C2C[C@H](OC(=O)Oc3ccccc3)[C@@]3(C)Oc4cc(-c5cccnc5)oc(=O)c4[C@H](O)C3[C@@]2(C)CC[C@@H]1OC(C)=O (stereo partly drawn) [PRD 057, 7-deacetyl-7-O-phenoxycarbonylpyripyropene A] | 10 to 100 | + (5 > specific activity > 1) | 
11 | CC(=O)OCC1(C)C2C[C@H](OC(=O)c3cccc(I)c3)[C@@]3(C)Oc4cc(-c5cccnc5)oc(=O)c4[C@H](O)C3[C@@]2(C)CC[C@@H]1OC(C)=O (stereo partly drawn) [PRD 005, 7-m-iodobenzoyl-7-deacetylpyripyropene A] | 10 to 100 | +++ (50 > specific activity > 10) | 
12 | CC(=O)OCC1(C)C2C[C@H](OC(=O)c3ccc(Br)cc3)[C@@]3(C)Oc4cc(-c5cccnc5)oc(=O)c4[C@H](O)C3[C@@]2(C)CC[C@@H]1OC(C)=O (stereo partly drawn) [PRD 019, 7-p-bromobenzoyl-7-deacetylpyripyropene A] |  | +++ (50 > specific activity > 10) | 
13 | CC(=O)OCC1(C)C(OC(C)=O)CCC2(C)C1CC(OC(=O)c1ccc(C)cc1)C1(C)Oc3cc(-c4cccnc4)oc(=O)c3C(O)C21 (stereo not drawn) [PRD 009] |  | ++++ (100 > specific activity > 50) | 
14 | CC(=O)OCC1(C)C2C[C@H](OC(=O)C34CC5CC(CC(C5)C3)C4)[C@@]3(C)Oc4cc(-c5cccnc5)oc(=O)c4[C@H](O)C3[C@@]2(C)CC[C@@H]1OC(C)=O (stereo partly drawn) [PRD 022, 7-1-adamantanecarboxyl-7-deacetylpyripyropene A] | < 10 | +++ (50 > specific activity > 10) | 
15 | COc1ccc(CC(=O)O[C@H]2CC3C(C)(COC(C)=O)[C@@H](OC(C)=O)CC[C@]3(C)C3[C@@H](O)c4c(cc(-c5cccnc5)oc4=O)O[C@@]32C)cc1 (stereo partly drawn) [PRD 087, 7-O-4-methoxyphenylacetyl-7-deacetylpyripyropene A] | 100 to 1000 | + (5 > specific activity > 1) | 
16 | CC(=O)OCC1(C)C2C[C@H](OC(=O)c3ccccc3C#N)[C@@]3(C)Oc4cc(-c5cccnc5)oc(=O)c4[C@H](O)C3[C@@]2(C)CC[C@@H]1OC(C)=O (stereo partly drawn) [PRD 015, 7-o-cyanobenzoyl-7-deacetylpyripyropene A] | 100 to 1000 | + (5 > specific activity > 1) | 
17 | 7-O-o,m,p-trifluorobenzoyl-7-deacetylpyripyropene A [PRD 110] |  | +++ (50 > specific activity > 10) | < 10
18 | CC(=O)OCC1(C)C2C[C@H](OC(=O)c3ccc(Cl)cc3)[C@@]3(C)Oc4cc(-c5cccnc5)oc(=O)c4[C@H](O)C3[C@@]2(C)CC[C@@H]1OC(C)=O (stereo partly drawn) [PRD 012, 7-p-chlorobenzoyl-7-deacetylpyripyropene A] | < 10 | +++ (50 > specific activity > 10) | 
19 | CC12COC(c3ccccc3)O[C@H]1CC[C@@]1(C)C2C[C@H](OC(=O)c2ccc(F)cc2)[C@@]2(C)Oc3cc(-c4cccnc4)oc(=O)c3[C@H](O)C12 (stereo partly drawn) [PRD 048, 1,11-O-benzylidene-7-O-p-fluorobenzoyl-1,7,11-trideacetylpyripyropene A] | 10 to 100 | ++ (10 > specific activity > 5) | 
